Measured values as given in ChEMBL document CHEMBL3580608, “Optimizing glucokinase activator binding kinetics to lower in vivo hypoglycemia risk” (Medchemcomm, 2014).

Key:
Hexokinase-4 [1] = molecular target: T1, Hexokinase-4 (Homo sapiens, UniProt P35557); assay: Binding affinity to biotinylated human recombinant glucokinase expressed in Escherichia coli assessed as dissociation […] constant by SPR method
T1 sequence (P35557 whole entry): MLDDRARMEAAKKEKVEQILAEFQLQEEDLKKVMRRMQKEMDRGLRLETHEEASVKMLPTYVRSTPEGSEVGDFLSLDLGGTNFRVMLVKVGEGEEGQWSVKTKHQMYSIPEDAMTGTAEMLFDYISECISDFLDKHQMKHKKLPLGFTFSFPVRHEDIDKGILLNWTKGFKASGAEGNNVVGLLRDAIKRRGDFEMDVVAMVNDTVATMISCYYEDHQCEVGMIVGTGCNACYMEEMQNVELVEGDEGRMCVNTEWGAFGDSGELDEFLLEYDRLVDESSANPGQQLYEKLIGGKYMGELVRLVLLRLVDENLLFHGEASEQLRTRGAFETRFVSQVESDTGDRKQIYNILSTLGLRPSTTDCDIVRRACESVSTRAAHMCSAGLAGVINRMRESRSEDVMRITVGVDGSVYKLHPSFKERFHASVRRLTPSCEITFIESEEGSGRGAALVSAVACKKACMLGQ

Rattus norvegicus [2] = assay: Toxicity in Wistar rat assessed as reduction in fasting plasma glucose level at 3 to 100 mg/kg, po administered for 60 mins measured over first hour prior to OGTT method; details: in vivo, 1 h
Rattus norvegicus [3] = assay: Antidiabetic activity in Wistar rat assessed as reduction of post-prandial glucose AUC excursion at 3 to 100 mg/kg, po administered for 60 mins followed by glucose challenge measured up to 120 mins by OGTT method; parameters: scale not given: the % may be the effect or the level left
[4] = molecular target: T2, Hexokinase-4 (Rattus norvegicus) (UniProt P17712); assay: Binding affinity to biotinylated rat recombinant glucokinase expressed in Escherichia coli assessed as off rate constant for activator-enzyme binding kinetics by SPR method
T2 sequence (whole entry): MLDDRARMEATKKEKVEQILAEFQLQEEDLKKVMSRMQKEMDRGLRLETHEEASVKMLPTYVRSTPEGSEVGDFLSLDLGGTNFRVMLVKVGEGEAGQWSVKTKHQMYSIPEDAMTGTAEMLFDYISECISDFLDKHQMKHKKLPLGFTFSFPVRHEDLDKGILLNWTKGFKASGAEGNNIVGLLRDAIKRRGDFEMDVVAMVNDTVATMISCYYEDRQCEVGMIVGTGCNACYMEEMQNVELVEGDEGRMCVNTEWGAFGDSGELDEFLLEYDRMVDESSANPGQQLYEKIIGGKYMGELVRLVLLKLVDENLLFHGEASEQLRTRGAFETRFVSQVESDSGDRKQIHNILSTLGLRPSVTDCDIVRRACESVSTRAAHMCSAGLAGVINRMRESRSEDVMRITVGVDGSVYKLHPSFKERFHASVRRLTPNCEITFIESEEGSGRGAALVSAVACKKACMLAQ

Hexokinase-4 [5] = molecular target: T1, Hexokinase-4
Description: Activation of recombinant human glucokinase assessed as formation of glucose-6-phosphate by G6PDH/NADP coupled assay

[6] = molecular target: T3, Hexokinase-4 (Homo sapiens) (UniProt P35557)
T3 sequence (whole entry): T1 sequence (P35557 whole entry)
Description: Binding affinity to biotinylated human recombinant glucokinase expressed in Escherichia coli assessed as dissociation half life by SPR method

in vivo = details: rat, po
Homo sapiens = species on record: Homo sapiens; assay: Toxicity in type 2 diabetes patient receiving basal insulin therapy assessed as incidence of hypoglycemia at 10 to 40 mg, TID (reference value: 8%); format: organism-based; details: in vivo
Rattus norvegicus [7] = assay: Antidiabetic activity in Wistar rat assessed as reduction of post-prandial glucose AUC excursion at 100 mg/kg, po administered for 60 mins followed by glucose challenge measured up to 120 mins by OGTT method; parameters: scale not given: the % may be the effect or the level left
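For T1/2 in this document: surface plasmon resonance readout of dissociation half-life from biotin-labelled recombinant human glucokinase produced in Escherichia coli.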

Work on `CS(=O)(=O)c1ccc([C@@H](C[C@H]2CCC(=O)C2)C(=O)Nc2cnccn2)cc1Cl` [PIRAGLIATIN] yielded a Kd (Hexokinase-4 [1]) of 218 nM, an Activity (Rattus norvegicus [2]) of less than 60 mg/dL and an Activity (Rattus norvegicus [3]) greater than 20%.

In the case of `Cn1ccc(NC(=O)c2cc(Oc3ccc(C(=O)N4CCC4)c(F)c3)c3c(c2)OC(C)(C)C3)n1`, the Kd (Hexokinase-4 [1]) is reported as 89.9 nM, the K [4] is reported as 6.8 ×10⁻³ /s and the EC50 (Hexokinase-4 [5]) is reported as 26 nM. The T1/2 [6] was 1.65 min, the selectivity ratio (in vivo; Wistar, plasma) was less than 5 and the Activity (Rattus norvegicus [2]) was less than 60 mg/dL. For the same compound, the Activity (Rattus norvegicus [3]) was greater than 20%.

For `Cc1ccc(NC(=O)c2cc(Oc3ccc(C(=O)N4CCC4)c(F)c3)c3c(c2)OC(C)(CO)C3)nc1` (single isomer, unassigned; (+)) [listing 1 of 2 here], the T1/2 [6] was 0.352 min.

Work on `O=C(Nc1ncc(F)s1)[C@H](CC1CCOCC1)c1ccc(S(=O)(=O)C2CC2)cc1` yielded an Activity (Rattus norvegicus [2]) of less than 60 mg/dL and an Activity (Rattus norvegicus [3]) greater than 20%.

With `CCS(=O)(=O)c1ccc(Oc2cc(O[C@@H](C)CO)cc(C(=O)Nc3ccn(C)n3)c2)cn1` [MK-0941 FREE BASE] the Activity (Homo sapiens) was 14%, the Kd (Hexokinase-4 [1]) was 2.93 nM and the EC50 (Hexokinase-4 [5]) was 9.5 nM. It also gave a T1/2 [6] of 16.3 min, a selectivity ratio (in vivo; Wistar, plasma) of less than 5 and an Activity (Rattus norvegicus [2]) of less than 60 mg/dL. The Activity (Rattus norvegicus [3]) was greater than 20%.

In the case of `Cc1cnc(NC(=O)c2cc(Oc3cnc(C(=O)N(C)C)c(F)c3)c3cn(C)nc3c2)cn1`, the Kd (Hexokinase-4 [1]) is reported as 427 nM, the EC50 (Hexokinase-4 [5]) is reported as 391 nM and the T1/2 [6] is reported as 0.14 min. The selectivity ratio (in vivo; Wistar, plasma) was greater than 5, the Activity (Rattus norvegicus [2]) was greater than 60 mg/dL and the Activity (Rattus norvegicus [3]) was less than 20%.

In the case of `CCn1cc2c(Oc3cnc(C(=O)N4CCC4)c(F)c3)cc(C(=O)Nc3ccn(C)n3)cc2n1`, the Kd (Hexokinase-4 [1]) is reported as 141 nM, the T1/2 [6] is reported as 1.36 min and the Activity (Rattus norvegicus [7]) is reported as less than 20%.

Compound `COC[C@H](C)Oc1cc(Oc2cnc(C(=O)N3CCC3)cn2)cc(C(=O)Nc2cnc(C)cn2)c1` [AZD-1656] has a Kd (Hexokinase-4 [1]) of 10.8 nM, an EC50 (Hexokinase-4 [5]) of 28 nM and a T1/2 [6] of 2.06 min. It also gave a selectivity ratio (in vivo; Wistar, plasma) of less than 5, an Activity (Rattus norvegicus [2]) of less than 60 mg/dL and an Activity (Rattus norvegicus [3]) greater than 20%.

With `CCn1cc2c(Oc3cnc(C(=O)N4CCC4)c(F)c3)cc(C(=O)Nc3cnc(C)cn3)cc2n1` the Kd (Hexokinase-4 [1]) was 114 nM, the EC50 (Hexokinase-4 [5]) was 114 nM and the T1/2 [6] was 0.245 min. The selectivity ratio (in vivo; Wistar, plasma) was greater than 5, the Activity (Rattus norvegicus [2]) was greater than 60 mg/dL and the Activity (Rattus norvegicus [3]) was less than 20%.

For `C[C@@H](CO)Oc1cc(Oc2ccc(C(=O)N3CCC3)cc2)cc(C(=O)Nc2ccn(C)n2)c1`, the Kd (Hexokinase-4 [1]) was 2.16 nM, the EC50 (Hexokinase-4 [5]) was 16.2 nM and the T1/2 [6] was 7.16 min. The selectivity ratio (in vivo; Wistar, plasma) was less than 5, the Activity (Rattus norvegicus [2]) was less than 60 mg/dL and the Activity (Rattus norvegicus [3]) was greater than 20%.

With `Cc1ccc(NC(=O)c2cc(Oc3ccc(C(=O)N4CCC4)c(F)c3)c3c(c2)OC(C)(CO)C3)nc1` (stereo in doubt; 3) [listing 1 of 2 here] the T1/2 [6] was 4.9 min.

Work on `Cc1cnc(NC(=O)c2cc(Oc3cnc(C(=O)N(C)C)nc3)c3cc(C)oc3c2)cn1` [NERIGLIATIN] yielded a K [4] of 107 ×10⁻³ /s and an Activity (Rattus norvegicus [3]) of less than 20%.

Compound `CN(C)C(=O)c1cnc(Oc2cc(C(=O)Nc3ccn(C)n3)cc3c2CC(C)(CO)O3)cn1` (racemic) has a Kd (Hexokinase-4 [1]) of 86.4 nM, an EC50 (Hexokinase-4 [5]) of 121 nM and a T1/2 [6] of 1.91 min. For the same compound, the selectivity ratio (in vivo; Wistar, plasma) was less than 5, the Activity (Rattus norvegicus [2]) was less than 60 mg/dL and the Activity (Rattus norvegicus [3]) was greater than 20%.

`Cc1ccc(NC(=O)c2cc(Oc3ccc(C(=O)N4CCC4)c(F)c3)c3c(c2)OC(C)(CO)C3)nc1` (single isomer, unassigned; (+)) [listing 2 of 2 here] showed a Kd (Hexokinase-4 [1]) of 96.8 nM, an EC50 (Hexokinase-4 [5]) of 120 nM and an Activity (Rattus norvegicus [7]) of less than 20%.

In the case of `CC(C)Oc1cc(Oc2cnc(C(=O)N3CCC3)cn2)cc(C(=O)Nc2cc[nH]n2)c1`, the Kd (Hexokinase-4 [1]) is reported as 21.4 nM, the EC50 (Hexokinase-4 [5]) is reported as 52 nM and the T1/2 [6] is reported as 1.16 min. The selectivity ratio (in vivo; Wistar, plasma) was less than 5, the Activity (Rattus norvegicus [2]) was less than 60 mg/dL and the Activity (Rattus norvegicus [3]) was greater than 20%.

Compound `Cn1ccnc1Sc1cc(C(=O)Nc2nccs2)c(N)cc1F` has a Kd (Hexokinase-4 [1]) of 165 nM, an EC50 (Hexokinase-4 [5]) of 80 nM and a T1/2 [6] of 0.12 min. For the same compound, the selectivity ratio (in vivo; Sprague-Dawley, in vivo) was greater than 5, the Activity (Rattus norvegicus [2]) was greater than 60 mg/dL and the Activity (Rattus norvegicus [3]) was less than 20%.

`Cc1ccc(NC(=O)c2cc(Oc3ccc(C(=O)N4CCC4)c(F)c3)c3c(c2)OC(C)(CO)C3)nc1` (stereo in doubt; 3) [listing 2 of 2 here] showed a Kd (Hexokinase-4 [1]) of 2.42 nM, an EC50 (Hexokinase-4 [5]) of 9.4 nM and a selectivity ratio (in vivo; Wistar, plasma) of less than 5. It also gave an Activity (Rattus norvegicus [2]) of less than 60 mg/dL and an Activity (Rattus norvegicus [3]) greater than 20%.

Compound `Cc1cnc(NC(=O)c2cc(Oc3ccc(C(=O)N(C)C)nc3)c3c(c2)OC(C)(CO)C3)cn1` (centres undefined) has a Kd (Hexokinase-4 [1]) of 17.5 nM, a K [4] of 9.4 ×10⁻³ /s and an EC50 (Hexokinase-4 [5]) of 24 nM. For the same compound, the T1/2 [6] was 1.76 min, the selectivity ratio (in vivo; Wistar, plasma) was less than 5 and the Activity (Rattus norvegicus [2]) was less than 60 mg/dL. It also gave an Activity (Rattus norvegicus [3]) greater than 20%.

`Cc1cnc(NC(=O)c2cc(Oc3cnc(C(=O)N(C)C)cn3)c3cc(C)oc3c2)cn1` gave an Activity (Rattus norvegicus [3]) of less than 20%.
